In one test the test system is T cells. The experiment in a line: Cell cycle analysis of T cells. In kind it is cell-based, human.
In test [1] the test system is HIV-1. The experiment in a line: HIV-1 latent infection of resting CD4 T cells, viral replication assay (p24 ELISA) after anti-CD3/CD28 activation. Format: cell-based, HIV-1NL4-3. The following applies: for inhibition of HIV replication in resting T cells: 2 hours before infection. The procedure:
Virus stocks of the HIV-1NL4-3 (Adachi et al. J Virol 59(2), 284-91 (1986)) were prepared by transfection of HeLa cells with cloned proviral DNA as described in Wu and Marsh (2001). Supernatant was harvested at 48 hours, and filtered through a 0.45 μm nitrocellulose membrane. Virus titer (TCID50) was measured by infection of a Rev-CEM indicator cell line which was constructed through stable integration of a Rev-dependent GFP expression lentiviral vector into CEM-SS. […] For infection of resting CD4 T cells, viruses were first titrated to determine minimal levels detectable by p24 ELISA in replication assays described below. Unless specified, for most replication assays, 10^3.5 to 10^4.5 TCID50 units of HIV-1 were used to infect 10^6 cells. For infection procedure, CD4 T cells were incubated with the virus for 2 hours, then washed twice with medium to remove unbound virus. Infected cells were resuspended into fresh RPMI 1604 medium supplemented with 10% heat-inactivated fetal bovine serum, penicillin (50 U/ml) and streptomycin (50 μg/ml) at a density of 10^6 per ml and incubated for 5 days without stimulation. Cells were activated at day 5 with anti-CD3/CD28 magnetic beads at 4 beads per cells. For viral replication assay, 10% of infected cells were taken at 1, 3, 5, 6, 7, 8, 9 days post infection. Cells were pelleted and the supernatant was saved for p24 ELISA. Levels of p24 in the supernatant were measured by using Coulter HIV-1 p24 Assay Kit (Beckman Coulter, Inc. Miami, Fla.). Plates were kinetically read using ELx808 automatic microplate reader (Bio-Tek Instruments, Inc. Winooski, Vt.) at 630 nm.
Resting CD4 T cells were treated with pertussis toxin (Sigma, St. Louis, Mo.) at a final concentration of 100 ng/ml for 2 hours, then infected with HIV-1. Following infection, cells were washed 2 to 3 times to remove cell-free virus and the inhibitor. Cells were treated with Jasplakinolide (Molecular Probes, Eugene, Oreg.) for 1 to 2 hours or Latrunculin A (Biomol, Plymouth Meeting, Pa.) for 5 minutes at various concentrations, washed twice with medium, then infected with HIV-1. Following infection, cells were washed twice to remove cell free virus. Cells were treated with 200 nM of Staurosporine (Biomol, Plymouth Meeting, Pa.) for 2 hours, then infected with HIV-1. Following infection, cells were washed twice to remove cell-free virus and the inhibitor.
Resting CD4 T cells were treated with S3 or Q104 for I to 2 hours, then infected with HIV-1. Following infection, cells were washed 2 to 3 times to remove cell-free virus and the peptides.
Effects of Jas on LFA-1 activation also were tested. Jas treated or untreated resting T cells were activated by anti-CD3/CD28 bead and stained with human ICAM-1/Fc chimera and analyzed by flow cytometer. The effects of Jas on IL-2 secretion also were measured. […] Cells were treated with Jas for 2 hours, washed, infected with HIV-1 for 5 days, then activated by anti-CD3/CD28 bead. […] Following infection, cellular DNA was PCR amplified for viral late DNA and β-actin pseudogene. Cells were pre-activated with PHA plus IL-2, then treated and infected as in FIG. 3A. […] CEM-SS cell were treated and infected as in FIG. 3A.
On the technique in general: ELISA stands for enzyme-linked immunosorbent assay.

For the next test, the system named is CD4/CXCR4 distribution. The test is described as follows: Confocal microscopy of CD4 and CXCR4 distribution on resting CD4 T cells. In kind it is cell-based, human. The following applies: 120 nM, 2 hours. The source says:
Stained cells were imaged using a Zeiss Laser Scanning Microscope (Thornwood, N.Y.), LSM 510 META, with a 40 NA 1.3 or 60 NA 1.4 oil Dic Plan-Neofluar objective. Samples were excited with two laser lines, 488 nm for GFP and 543 nm for Alexa 594. Images were simultaneously recorded in three channels: channel one: fluorescent emissions from 505 to 530 nm for GFP (green); channel two: emissions from 580 to 650 nm for Alexa 594 (red); channel three: DIC. Images were processed and analyzed by the LSM 510 META software.
FIG. 8 illustrates confocal microscopy of CD4 and CXCR4 distribution on resting CD4 T cells treated with 120 nM Jas. Resting CD4 T cells were treated with 120 nM of Jas for 2 hours, then fixed and stained with a FITC-labeled anti-human CD4 monoclonal antibody and a biotin-labeled anti-human CXCR4 monoclonal antibody followed by Alexa Fluor-594 labeled streptavidin (right panel). Untreated resting CD4 T cells were used as a control (left panel).

For another test, the system named is F-actin. The experiment in a line: Competitive binding of phalloidin to F-actin. Conditions: 120 nM.
For test [2], the system named is HIV-1. The test is described as follows: HIV-1 infection of transformed CEM-SS cells. In kind it is cell-based, HIV-1NL4-3. The procedure: (§1) Thus, the effect of Jas on T cell activity was determined. FIG. 3A illustrates inhibition of HIV-1 latent infection by Jas. Effects of Jas on LFA-1 activation also were tested. Jas treated or untreated resting T cells were activated by anti-CD3/CD28 bead and stained with human ICAM-1/Fc chimera and analyzed by flow cytometer. The effects of Jas on IL-2 secretion also were measured. […] Cells were treated with Jas for 2 hours, washed, infected with HIV-1 for 5 days, then activated by anti-CD3/CD28 bead. […] Following infection, cellular DNA was PCR amplified for viral late DNA and β-actin pseudogene. Cells were pre-activated with PHA plus IL-2, then treated and infected as in FIG. 3A. […] CEM-SS cell were treated and infected as in FIG. 3A. Effects of Jas on HIV-1 infection of resting T cells pre-stimulated with anti-CD4/CXCR4 bead (2 beads/cell) are shown in FIG. 3E. Pre-stimulated cells were treated and infected as in FIG. 3A.

In test [3] the test system is HIV-1. The test is described as follows: HIV-1 infection of T cells pre-activated with PHA plus IL-2. In kind it is cell-based, HIV-1NL4-3. The following applies: similar Jas treatment (120 nM). The procedure: as §1
Another test deals with IL-2 secretion. The test is described as follows: IL-2 ELISA of cell culture supernatant after T cell activation. In kind it is cell-based, human. As to the method:
IL-2 release into cell culture supernatant was detected by a human IL-2 ELISA development kit (PeproTech, Rocky Hill, N.J.) according to the manufacture's instruction. Briefly, each well of a plate was coated with 100 μl of capture antibody (1 μg/ml) and incubated overnight at room temperature, then washed and blocked with 300 μl of blocking solution for one hour at room temperature. Samples in plates were incubated for 1 hour at 37° C., then washed and incubated with 100 μl of detection antibody (0.5 μg/ml) for 1 hour at 37° C. Plates were washed and incubated with 100 μl of the avidin-peroxidase conjugate (1:2000 dilution) for 30 minutes at room temperature followed by washing and incubation with 100 μl of Tetramethylbenzidine (TMB) substrate buffer. Plates were kinetically read using ELx808 automatic microplate reader (Bio-Tek Instruments, Inc. Winooski, Vt.) at 630 nm.

In the case of `C/C1=C\[C@H](C)C[C@H](C)OC(=O)C[C@H](c2ccc(O)cc2)NC(=O)[C@@H](Cc2c(Br)[nH]c3ccccc23)N(C)C(=O)[C@H](C)NC(=O)[C@@H](C)C1` [Jas, Jasplakinolide], the results for the cell cycle arrest result in the test with T cells (120 nM) and in the test on T cells (3μM) were “no cell cycle arrest” and “arrested cells in S phase”, respectively. The “inhibition of HIV replication in resting T cells” value with HIV-1 [1] (24 nM) is given as “partial inhibition”; in the test on HIV-1 [1] (120 nM), “Complete inhibition”; with HIV-1 [1] (600 nM), “Complete inhibition”. Also, the “inhibition of HIV replication in resting T cells pre-stimulated with CD4/CXCR4 bead” value in the test with HIV-1 [1] (120 nM, pre-stimulation 2 beads/cell) is “completely abolished the inhibition”. In addition, the “CD4/CXCR4 distribution on the surface, treated vs untreated cells” value in the test on CD4/CXCR4 distribution is listed as “did not reveal any significant difference”. Besides, in the test on F-actin, the “inhibition of subsequent competitive binding of phalloidin to F-actin” value was “significantly inhibited”. Besides, the “inhibition of HIV replication in GEM-SS” value in the test with HIV-1 [2] (3μM) is “did inhibit HIV replication”. In the test with HIV-1 [2] (similar Jas treatment (120 nM)), the “inhibition of HIV replication in transformed CEM-SS” value was “no inhibition”. For the same compound, in the test on HIV-1 [3], the “inhibition of HIV replication in pre-activated T cells” value is reported as “no inhibition”. The “effect on IL-2 secretion” value in the test on IL-2 secretion (120 nM and below) was “no significant effect”. Also, the “effect on IL-2 expression following T cell activation” value in the test with IL-2 secretion (600 nM and above) is “inhibited IL-2 expression”.
